The values that follow come from ChEMBL document CHEMBL5528067, “From Synergy to Monotherapy: Discovery of Novel 2,4,6-Trisubstituted Triazine Hydrazone Derivatives with Potent Antifungal Potency In Vitro and In Vivo” (J Med Chem, 2024).

In brackets after ≈: the same amount, converted by molar mass. Activity calls are given as the source filed them.

Data set [1] concerns Candida albicans. The data set is described as follows: Antifungal activity against FCZ-resistant Candida albicans 10231 assessed as growth inhibition measured after 48 hrs incubation by CLSI based micro-dilution broth method. Type of data set: functional. For orientation: In broth dilution the organism is exposed to a series of concentrations in liquid medium.
A further data set concerns Cryptococcus neoformans. The data set is described as follows: Antifungal activity against Cryptococcus neoformans 32609 assessed as growth inhibition measured after 48 hrs incubation by CLSI based micro-dilution broth method. Type of data set: functional.
In the next data set the test system is Candida parapsilosis. The experiment in a line: Antifungal activity against Candida parapsilosis 22019 assessed as growth inhibition measured after 48 hrs incubation by CLSI based micro-dilution broth method. Type of data set: functional. The settings on record: Lodderomyces parapsilosis.
Another data set concerns Candida tropicalis. The data set is described as follows: Antifungal activity against Candida tropicalis 8915 assessed as growth inhibition measured after 48 hrs incubation by CLSI based micro-dilution broth method. It is filed as functional.
The test system of a further data set is [Candida] auris. The experiment in a line: Antifungal activity against FCZ-resistant Candida auris 919 assessed as growth inhibition measured after 48 hrs incubation by CLSI based micro-dilution broth method. Type of data set: functional. The settings on record: Candidozyma auris.
Data set [2] has as its system Candida albicans. The experiment in a line: Filamentation inhibitory effect in Candida albicans SC5314 assessed as inhibition of hyphal formation using hyphal-inducing RPMI 1640 medium by measuring shorter hyphal at 2 to 8 microg/ml measured after 8 hrs by inverted imaging microscopy. Type of data set: functional, organism-based. The note with it: dose 2-8 µg/ml.
Data set [3] concerns Candida albicans. The experiment in a line: Antibiofilm activity against Candida albicans SC5314 assessed as inhibition of biofilm formation at 4 microg/ml incubated for 24 hrs by XTT/menadione reduction assay relative to control. The settings on record: dose 4 µg/ml. Also on record: scale not given: the % may be the effect or the level left. It is filed as functional. A general note: Formazan colour is commonly taken as a measure of viable cells.

The test system of data set [4] is Candida albicans. The experiment in a line: Antibiofilm activity against Candida albicans SC5314 assessed as biofilm disruption at 32 microg/ml incubated for 24 hrs by XTT/menadione reduction assay relative to control. Type of data set: functional. Also on record: scale not given: the % may be the effect or the level left. The note with it: dose 32 µg/ml.
For data set [5], the system named is Candida albicans. The data set is described as follows: Effect on ECE1 gene expression in Candida albicans SC5314 at 4 to 8 microg/ml by real time RT-PCR analysis. The settings on record: dose 4-8 µg/ml. It is filed as functional. In general terms: In qPCR the cycle at which signal appears reflects the starting amount.
In data set [6] the test system is Candida albicans. The experiment in a line: Effect on of BRG1 gene expression in Candida albicans SC5314 at 4 to 8 microg/ml by real time RT-PCR analysis. It is filed as functional. The settings on record: dose 4-8 µg/ml.
Data set [7] has as its system Candida albicans. The data set is described as follows: Effect on of UME6 gene expression in Candida albicans SC5314 at 4 to 8 microg/ml by real time RT-PCR analysis. Type of data set: functional. The settings on record: dose 4-8 µg/ml.
In data set [8] the test system is Candida albicans. The data set is described as follows: Upregulation of SAP2 gene expression in Candida albicans SC5314 assessed as fold increase at 4 microg/ml by real time RT-PCR analysis relative to control. It is filed as functional. The note with it: dose 4.0 µg/ml.
The subject of data set [9] is Candida albicans. The data set is described as follows: Effect on sterol biosynthesis in Candida albicans SC5314 assessed as sterol component and content at 4 microg/ml measured after 8 hrs by GC-MS analysis. It is filed as functional, organism-based. The note with it: dose 4.0 µg/ml.
In data set [10] the test system is Candida albicans. The data set is described as follows: Induction of cell wall component change in Candida albicans SC5314 assessed as decrease in mannan content by measuring ConA fluorescence intensity at 4 microg/ml measured after 12 hrs by confocal laser-scanning microscopy. The note with it: dose 4.0 µg/ml. Type of data set: functional, organism-based.
For data set [11], the system named is Candida albicans. The data set is described as follows: Induction of cell wall component change in Candida albicans SC5314 assessed as irregular and shrunken cell membrane chitin structure at 4 microg/ml measured after 12 hrs by transmission electron microscopy. It is filed as functional, organism-based. The settings on record: dose 4.0 µg/ml.
Data set [12] is described as follows: Cytotoxicity against human HUVEC cells assessed as cell viability measured after 24 hrs by CCK-8 assay. Type of data set: toxicity, cell-based.
Data set [13] is described as follows: Metabolic stability in mouse liver microsomes assessed as half life measured upto 60 mins by LC-MS/MS analysis. It is filed as ADME, Microsome.
Data set [14] in a line: Half life in Sprague-Dawley rat at 2 mg/kg, iv measured upto 24 hrs by LC-MS/MS analysis. The note with it: in vivo. It is filed as ADME, organism-based.
Data set [15] in a line: Volume of distribution at steady state in Sprague-Dawley rat at 2 mg/kg, iv measured upto 24 hrs by LC-MS/MS analysis. The settings on record: in vivo, read-out: Vdss. Type of data set: ADME, organism-based.
Data set [16] in a line: MRT (0 to t) in Sprague-Dawley rat at 2 mg/kg, iv measured upto 24 hrs by LC-MS/MS analysis. The settings on record: in vivo. Type of data set: ADME, organism-based.

Usually MIC80 stands for an inhibitory concentration at the 80% level, which refers to growth in some studies and to a panel of isolates in others. Broadly, the IC50 is the concentration that inhibits the measured activity by half. As usually defined, the half-life is the time needed for the level to fall by half in the phase considered. What is called MRT last is a mean duration of stay, worked out from the concentration-time curve. Take `O=[N+]([O-])c1ccc(O)c(/C=N/Nc2nc(NCc3ccc(F)cc3)nc(NCc3ccc(F)cc3)n2)c1`: the MIC80 in the data set on Candida albicans [1] worked out at 16 mg/L (≈ 31.6 µM); in the data set on Cryptococcus neoformans, 1 mg/L (≈ 1.97 µM); in the data set with Candida parapsilosis it was 2 mg/L (≈ 3.95 µM); in the data set on Candida tropicalis, 2 mg/L (≈ 3.95 µM); in data set [Candida] auris, 16 mg/L (≈ 31.6 µM). Also, the result with Candida albicans [2], with Candida albicans [10] and in the data set on Candida albicans [11] was Active. Further, the Activity in the data set on Candida albicans [3] is 40%; with Candida albicans [4] it was less than 30%. Besides, the result in the data set on Candida albicans [5], in the data set on Candida albicans [6], in the data set with Candida albicans [7] and in the data set on Candida albicans [9] was inactive. For the same compound, in the data set on Candida albicans [8], the fold change (FC) came out at 1.86. The 50% inhibitory concentration (IC50) at 24 h in data set [12] worked out at 41.4 mg/L (≈ 81.7 µM). The half-life is 55.8 min in data set [13] and 76.8 min in data set [14]. For the same compound, the Vd in [15] was found to be 1.08 L/kg. In addition, the mean residence time (MRT last) at 24 h in [16] was 45 min.
